{"source": "patent US8796282B2", "about": "“Method of treating dermatological disorders” (Case Western Reserve University, priority 2007, dated 2014)", "key": {"[1]": {"system": "PEX16 gene expression", "assay": "PEX16 gene expression in HaCaT keratinocytes treated with PPAR agonists, real-time PCR", "format": "cell-based, human", "conditions": "HaCaT cells, 1 μM and 5 μM in 0.1% DMSO, 48 hours", "description": "(§1) HaCaT keratinocytes were treated with vehicle alone (0.1% DMSO) or with specific agonists (1 μM and 5 μM in 0.1% DMSO) of PPARγ-Ciglitazone (Cig), Rosiglitazone (Rosi), Pioglitazone (Pio) and Troglitazone (Tro), PPARα-WY-14363 and PPARδ-GW50516. After 48 hours, PEX16 gene expression was measured by real-time PCR.\n(§2) We directly assessed the role of PPARγ in modulating peroxisomal gene expression by growing HaCat cells (human keratinocyte cell line) in the presence of PPAR agonists (1 μM and 5 μM concentrations in 0.1% DMSO) and monitoring gene expression by real-time PCR (FIG. 5b). The agonists tested were Ciglitazone (Cig), Rosiglitazone (Rosi), Pioglitazone (Pio) and Troglitazone (Tro) specific for PPARγ, WY-14363 specific for PPARα and GW50516 specific for PPARδ. […] We also examined whether expression of the PEX3 gene is modulated by the PPAR agonist Pioglitazone (Pio) in cultured outer root sheath keratinocytes. Cells were grown in the presence or absence of Pio and PEX3 gene expression was monitored by real-time PCR.\nQuantitative real-time RT-PCR. […] The target gene expression in LPP and control samples was quantitated by the comparative CT method as described in the ABI Prism 7700 Sequence Detection System manual (PE Biosystems). […]"}, "[2]": {"system": "PEX3 gene expression", "assay": "PEX3 gene expression in cultured outer root sheath (ORS) keratinocytes treated with PPAR agonists, real-time PCR", "format": "cell-based, human", "conditions": "for effect on PEX3 gene expression: cultured outer root sheath keratinocytes", "description": "as §1, §2\n(§3) Quantitative real-time RT-PCR. FAM labeled PCR primers and TaqMan hydrolysis probes for all target genes and 18S rRNA were purchased from Perkin-Elmer Applied Biosystems (Foster City, Calif.). Real-time PCR was performed on an ABI Prism 7700 Sequence Detection System (PE Biosystems) according to the recommendation of the manufacturer. The target gene expression in LPP and control samples was quantitated by the comparative CT method as described in the ABI Prism 7700 Sequence Detection System manual (PE Biosystems).\nEffect of PPARg agonists and antagonists on PEXgenes. Human Hair Follicle Outer Root Sheath Cells (ORS cells) were obtained from ScienCell™ (San Diego, Calif.) and grown in Mesenchymal Stem Cell Medium (MSCM) consisting of 500 ml of basal medium, 25 ml of fetal bovine serum, 5 ml of mesenchymal stem cell growth supplement and 5 ml of penicillin/streptomycin solution. HaCaT cells were cultured in Dulbecco's modified Eagle's medium containing 10% fetal bovine serum under 5% CO2 at 37° C. […]"}, "[3]": {"system": "PEX genes (PEX3, PEX16, PMP22)", "assay": "PEX (peroxisomal) gene expression in a human keratocyte cell line / cultured human keratinocytes exposed to PPARγ agonists", "format": "cell-based", "conditions": "for expression of peroxisomal genes (PEX3, PEX16, PMP22): qualitative statement, cultured human keratinocytes", "description": "as §3\nEffect of PPARg agonists and antagonists on PEXgenes. Human Hair Follicle Outer Root Sheath Cells (ORS cells) were obtained from ScienCell™ (San Diego, Calif.) and grown in Mesenchymal Stem Cell Medium (MSCM) consisting of 500 ml of basal medium, 25 ml of fetal bovine serum, 5 ml of mesenchymal stem cell growth supplement and 5 ml of penicillin/streptomycin solution. HaCaT cells were cultured in Dulbecco's modified Eagle's medium containing 10% fetal bovine serum under 5% CO2 at 37° C. The different PPAR agonists were added in triplicate in dimethylsulfoxide (<0.1% by volume) for 48 hours to evaluate their effects on PEX gene expression by real-time PCR."}, "[4]": {"system": "Patients with LLP", "assay": "Treatment of patients with lichen planopilaris with low dose Actos", "format": "in vivo, human", "conditions": "for inflammatory cells in scalp biopsy histology: one patient, H&E", "description": "Patients were treated with Actos (Pioglitazone), a PPARγ agonist that is currently used to treat diabetes. Patients with LLP were given a low dose of Actos, i.e., less than about 15 mg/daily. […] The histology of scalp biopsy of one of the patients before, after one year of treatment, and after two years of treatment are shown in FIGS. 18-20. […] Therefore, PPAR agonist is effective in reducing symptoms."}}}
{"smiles": "Cc1cc(SCc2sc(-c3ccc(C(F)(F)F)cc3)nc2C)ccc1OCC(=O)O", "note": "[GW50516]", "values": [{"measurement": "effect on PEX 16 gene expression", "setting": "[1]", "result": "minimal effect"}, {"measurement": "effect on PEX3 gene expression", "setting": "[2]", "result": "minimal effect"}]}
{"smiles": "Cc1cccc(Nc2cc(Cl)nc(SCC(=O)O)n2)c1C", "note": "[WY-14363]", "values": [{"measurement": "effect on PEX 16 gene expression", "setting": "[1]", "result": "minimal effect"}, {"measurement": "effect on PEX3 gene expression", "setting": "[2]", "result": "minimal effect"}]}
{"smiles": "CN(CCOc1ccc(CC2SC(=O)NC2=O)cc1)c1ccccn1", "note": "(stereo not shown) [Rosiglitazone, 5-[4-[2-(N-methyl-N-(2-pyridyl)amino]ethoxy]benzyl]thiazolidine-2,4-dione]", "values": [{"measurement": "increase in PEX gene expression", "setting": "[3]; human keratocyte cell line", "result": "three-fold increase"}, {"measurement": "expression of peroxisomal genes (PEX3, PEX16, PMP22)", "setting": "[3]", "result": "induces the expression"}]}
{"smiles": "CCc1ccc(CCOc2ccc(CC3SC(=O)NC3=O)cc2)nc1", "note": "(stereo not shown) [Pioglitazone, 5-[4-[2-(5-ethylpyridin-2-yl)ethoxyl]benzyl]thiazolidine-2,4-dione]", "values": [{"measurement": "increase in PEX3 gene expression", "setting": "[2]; outer root sheath keratinocytes, 1 μM, compared to vehicle alone (0.1% DMSO)", "result": 4, "unit": "fold"}, {"measurement": "expression of peroxisomal genes (PEX3, PEX16, PMP22)", "setting": "[3]", "result": "induce the expression"}, {"measurement": "itching, burning and pain associated with lichen planopilaries", "setting": "[4]; LLP patients, less than about 15 mg/daily, patient-reported", "result": "significant decrease"}, {"measurement": "inflammatory cells in scalp biopsy histology", "setting": "[4]; after 1 year of treatment", "result": "Reduction is already seen"}, {"measurement": "inflammatory cells in scalp biopsy histology", "setting": "[4]; at two years of treatment", "result": "complete clearing of inflammatory cells"}]}
{"smiles": "CC1(COc2ccc(CC3SC(=O)NC3=O)cc2)CCCCC1", "note": "(stereo not shown) [Ciglitazone, 5-[4-[(1-methylcyclohexyl)methoxy]benzyl]thiazolidine-2,4-dione]", "values": [{"measurement": "expression of peroxisomal genes (PEX3, PEX16, PMP22)", "setting": "[3]", "result": "induce the expression"}]}
{"smiles": "Cc1c(C)c2c(c(C)c1O)CCC(C)(COc1ccc(CC3SC(=O)NC3=O)cc1)O2", "note": "(single isomer, unassigned; (+)) [Troglitazone, (+)-5[[4-[(3,4-dihydro-6-hydroxy-2,5,7,8-tetramethyl-2H-1-benzopyran-2-yl)methoxy]phenyl]methyl]-2,4-thiazolidinedione]", "values": [{"measurement": "expression of peroxisomal genes (PEX3, PEX16, PMP22)", "setting": "[3]", "result": "induce the expression"}]}
